In ChEMBL document CHEMBL1201862, “PubChem BioAssay data set” (2004):
Active and inactive are the calls of the source. Cut-off read from the data, not from the text of the source, for most assays here: actives have a measured EC50 and inactives only a lower limit.

Columns and labels:
[1] = NIH-3T3 fibroblast cytotoxicity, dose response, cytotoxicity control, cell-based, fluorescence, Alamar Blue, secondary assay (AID 2327); type: functional;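 note: NIH-3T3 mouse fibroblasts cultured with fluconazole at 8 µg/mL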
[2] = C. albicans growth with fluconazole, confirmation, fluorescence, retest (AID 2467); type: functional, cell-based
[3] = tested on: H9c2; assay: cells; type: functional, cell-based; details: Rattus norvegicus, H9c2, Myocardium;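 note: confirmatory concentration-response retest of ultra-high-throughput screening hits for modulation of myocardial damage; cell death induced by hydrogen peroxide oxidative stress; compound pretreatment for 60 min then peroxide exposure for 2 h; potency is for protecting the cells against peroxide damage rather than for killing them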
[4] = tested on: Streptococcus sp. 'group A'; assay: growth inhibition of control SK(-) GAS strain, dose response, counter-screen for streptokinase expression inhibitor project, luminescence, kanamycin, BacTiterGlo, confirmation (AID 1900); type: functional, organism-based
[5] = molecular target: T1, Streptokinase A (Streptococcus pyogenes serotype M1, UniProt P10520); assay: S. pyogenes streptokinase expression inhibitors, potency, dose response, plasminogen activation absorbance, OD405 (AID 1914); type: functional, Streptococcus pyogenes M1 GAS;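 note: secreted streptokinase activity via plasminogen activation per viability signal from cell pellet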
T1 sequence (P10520 whole entry): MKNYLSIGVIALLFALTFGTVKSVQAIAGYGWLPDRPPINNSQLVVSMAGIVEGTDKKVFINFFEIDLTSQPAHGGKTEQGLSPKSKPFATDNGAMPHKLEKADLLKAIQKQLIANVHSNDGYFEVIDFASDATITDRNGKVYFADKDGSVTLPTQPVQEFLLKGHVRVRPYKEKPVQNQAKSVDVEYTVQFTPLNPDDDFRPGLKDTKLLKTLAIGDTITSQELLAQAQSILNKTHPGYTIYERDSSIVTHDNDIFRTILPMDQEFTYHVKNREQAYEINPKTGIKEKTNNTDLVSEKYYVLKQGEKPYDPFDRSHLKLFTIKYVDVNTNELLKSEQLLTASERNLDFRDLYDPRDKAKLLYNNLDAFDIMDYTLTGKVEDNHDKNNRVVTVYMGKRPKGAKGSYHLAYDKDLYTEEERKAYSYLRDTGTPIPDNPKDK

[6] = tested on: Streptococcus; assay: Group A Streptococcus viability loss, dose response, counter-screen for streptokinase expression inhibitor project, luminescence, BacTiterGlo (AID 1915); type: functional, organism-based;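 note: potency for reduction of bacterial viability or growth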
[7] = molecular target: T2, Corticotropin-releasing factor receptor 2/Corticotropin-releasing factor-binding protein (Homo sapiens, UniProt P24387+Q13324); assay: activators of CRF receptor 2 with binding protein – uHTS hits, confirmation (AID 602473); type: functional; details: read-out: EC50_Mean
T2 sequence (Q13324 whole entry): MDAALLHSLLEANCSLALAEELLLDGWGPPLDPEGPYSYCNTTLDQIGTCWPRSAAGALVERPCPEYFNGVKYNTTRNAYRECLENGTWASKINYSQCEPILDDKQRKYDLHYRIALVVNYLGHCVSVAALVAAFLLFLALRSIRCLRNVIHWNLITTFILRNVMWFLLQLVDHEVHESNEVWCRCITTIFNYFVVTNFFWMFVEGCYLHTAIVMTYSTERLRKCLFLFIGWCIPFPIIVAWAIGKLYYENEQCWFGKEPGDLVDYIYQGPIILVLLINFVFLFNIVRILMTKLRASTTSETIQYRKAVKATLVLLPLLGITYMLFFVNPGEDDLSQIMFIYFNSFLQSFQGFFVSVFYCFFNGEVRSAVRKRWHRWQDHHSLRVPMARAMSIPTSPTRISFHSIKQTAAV
T2 sequence (P24387 whole entry): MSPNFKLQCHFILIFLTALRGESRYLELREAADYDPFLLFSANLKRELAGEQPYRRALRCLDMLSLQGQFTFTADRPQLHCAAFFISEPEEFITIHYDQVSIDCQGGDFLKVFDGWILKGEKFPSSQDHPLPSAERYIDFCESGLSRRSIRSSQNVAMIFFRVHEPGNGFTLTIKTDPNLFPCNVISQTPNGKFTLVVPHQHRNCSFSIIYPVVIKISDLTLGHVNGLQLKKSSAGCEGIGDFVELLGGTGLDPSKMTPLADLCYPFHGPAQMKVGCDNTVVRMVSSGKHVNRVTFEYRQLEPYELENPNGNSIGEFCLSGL

[8] = Shn3 3'UTR reporter inhibitors, dose response, cell-based, Clone20 osteoblasts, firefly luciferase, cherry-picked (AID 624132); type: functional;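 note: firefly luciferase luminescence from reporter carrying the Shn3 3'UTR in osteoblasts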

CC(C)Cc1ccc(CN2CCCC(NC(=O)CCN3CCCO3)C2)cc1 (stereo not drawn)
EC50 [1]: > 160 µM (inconclusive) | EC50 [2]: > 38 µM (not active)

COc1cc(NC(=O)c2c(OC)cccc2OC)ccc1NC(=O)c1cc2ccccc2o1
IC50 [3]: > 79 µM (inactive)

CC(Sc1ccc(Cl)cc1)C(=O)NCc1ccc2c(c1)OCO2 (stereo not drawn)
EC50 [1]: > 150 µM (inactive) | EC50 [2]: 2.94 µM (active)

COc1cccc(OC)c1C(=O)Nc1cc(C)nn1-c1nc2ccccc2[nH]1
EC50 [4]: 15.5 µM (active) | EC50 [5]: > 150 µM (not active) | EC50 [6]: > 150 µM (not active) | IC50 [3]: > 79 µM (inactive)

COc1cc(NC(=O)c2ccco2)c(C(=O)OCC(=O)c2c[nH]c3ccccc23)cc1OC
IC50 [3]: > 79 µM (inactive)

CCC1(CC)NC(=O)N(CC(=O)OCC(=O)Nc2ccccc2[N+](=O)[O-])C1=O
IC50 [3]: 11.9 µM (active)

O=C(Cn1[nH]c(=O)c2ccccc2c1=O)NCC1COc2ccccc2O1 (stereo not drawn)
IC50 [3]: 48.7 µM (inactive)

COc1ccc(-n2cccc2/C=C2\C(=N)N3N=C(C(C)C)SC3=NC2=O)cc1
EC50 [1]: > 150 µM (inactive) | EC50 [2]: > 38 µM (not active)

COc1cccc(NC(=S)NC(=O)Cc2ccc(Cl)cc2)c1
EC50 [7]: 5.76 µM (active)

O=S(=O)(NC1CCCCC1N1CCN(c2ccccc2F)CC1)c1ccc(Cl)cc1 (stereo not drawn)
EC50 [7]: 6.24 µM (active)

CCc1nc2ccccc2c(C(=O)OCc2nc(O)c3ccccc3n2)c1C
IC50 [3]: 5.84 µM (active)

O=C(Nc1ccccc1)c1cccc2c(-c3cccnc3)coc12
IC50 [3]: > 79 µM (inactive)

CCCCc1ccc(/N=C/C2=C(O)OC3(CCCCC3)OC2=O)cc1
EC50 [7]: 5.81 µM (active)

O=C(N/N=C/c1ccccn1)c1cc(-c2ccncc2)nc2ccccc12
IC50 [3]: > 79 µM (inactive)

O=C(N/N=C/c1ccc2c(c1)OCO2)c1cc(-c2ccccc2Cl)nc2ccccc12
EC50 [1]: 94.7 µM (inconclusive) | EC50 [2]: 0.684 µM (active)

CC(=O)OCC(=O)[C@@]1(O)CC[C@H]2[C@@H]3CCC4=CC(=O)CC[C@]4(C)[C@H]3C(=O)C[C@@]21C [CORTISONE ACETATE]
AC50 [8]: 28.3 µM (active)
